Experimental data from paper PMC10732280 (2023).

Assays:
[1] = tested on: DAP i-motif (DNA, i motif) CCCCCGCCCCCGCCCCCGCCCCCGCCCCCG; assay: CD melting; settings: K+ 100 mM, Li+ 10 mM; 10 mM lithium cacodylate pH 5.5; 10 μM DNA; 50 μM compound (5 eq.); destabilising
[2] = tested on: S100P i-motif (DNA, i motif) TCCCAACCCCACTGTCCCACCCT; assay: CD titration, Hill fit of ellipticity at 288 nm; settings: K+ 100 mM, Li+ 10 mM; 10 mM lithium cacodylate pH 5.5; 10 μM DNA; i-motif unfolding; Hill n 2.3 ± 0.2
[3] = tested on: S100P i-motif (DNA, i motif) TCCCAACCCCACTGTCCCACCCT; assay: UV-vis titration of ligand with DNA; settings: K+ 100 mM, Li+ 10 mM; 10 mM lithium cacodylate pH 5.5; 5 μM ligand; analysis method 1 (method 2: 10.8 ± 2.9)
[4] = tested on: hTelo i-motif (DNA, i motif) TAACCCTAACCCTAACCCTAACCC; assay: CD melting; settings: K+ 100 mM, Li+ 10 mM; 10 mM lithium cacodylate pH 5.5; 10 μM DNA; 50 μM compound (5 eq.); destabilising
[5] = tested on: S100P G-quadruplex (DNA, G4) AGGGTGGGACAGTGGGGTTGGGA; assay: UV-vis titration of ligand with DNA; settings: K+ 100 mM, Li+ 10 mM; 10 mM lithium cacodylate; DNA at pH 7, ligand stock buffer pH 5.5; analysis method 1 (method 2: 1.5 ± 0.2)
[6] = tested on: ILPR i-motif (DNA, i motif) TGTCCCCACACCCCTGTCCCCACACCCCTGT; assay: CD melting; settings: K+ 100 mM, Li+ 10 mM; 10 mM lithium cacodylate pH 5.5; 10 μM DNA; 50 μM compound (5 eq.); destabilising
[7] = tested on: S100P i-motif (DNA, i motif) TCCCAACCCCACTGTCCCACCCT; assay: CD melting; settings: K+ 100 mM, Li+ 10 mM; 10 mM lithium cacodylate pH 5.5; 10 μM DNA; 50 μM compound (5 eq.); destabilising

ΔTm [1]: -21.6 ± 1.1 °C
[D]50% [2]: 31 ± 4 µM
Kd [3]: 11.7 ± 2.9 µM
ΔTm [4]: -16.6 ± 0.7 °C
Kd [5]: 2.0 ± 0.3 µM
ΔTm [6]: -18.8 ± 0.4 °C
ΔTm [7]: −20.7 ± 1.1 °C
SMILES: O=C1c2cc(-c3ccc(CN4CCCC4)cc3)c3c4c(cc(NCCN5CCCC5)c(c24)C(=O)N1CCCN1CCOCC1)C(=O)N(CCCN1CCOCC1)C3=O
